The test system of experiment [1] is Naïve T cells. Nature of the experiment: CD8+/CD4+ phenotype after 10 days with 2-DG in naïve T cells. Format: cell-based, human. The settings on record: 4 mM 2-DG. On the procedure:
For some studies, CD8+ and CD4+ T cells were isolated from PBMCs by negative selection using Untouched Human CD8+ and CD4+ T Cells Kits. Naïve and non-naïve T cells were isolated from enriched T cells by positive selection using CD45RA nanobeads (Miltenyi). Phenotype: Primary human T cells were expanded for 10 days with and without 2-DG and 5% human AB serum. DYNABEADS® were removed from 2×10^6 cells by magnetic separation. Surface staining was performed with antibodies against CD3 (Invitrogen, Cat. No. CD0329), CD4 (Molecular Probes, Cat. No. A15858), CD8 (Invitrogen, Cat. No. MHCD0828). Flow cytometric analysis was performed on a Gallios flow cytometer and Kaluza software (Beckman Coulter, Indianapolis IN). For some studies, CD8+ and CD4+ T cells were isolated from PBMCs by negative selection using Untouched Human CD8+ and CD4+ T Cells Kits. Naïve and non-naïve T cells were isolated from enriched T cells by positive selection using CD45RA nanobeads (Miltenyi). Phenotype: Primary human T cells were expanded for 10 days with and without 2-DG and 5% human AB serum. DYNABEADS® were removed from 2×10^6 cells by magnetic separation. Surface staining was performed with antibodies against CD3 (Invitrogen, Cat. No. CD0329), CD4 (Molecular Probes, Cat. No. A15858), CD8 (Invitrogen, Cat. No. MHCD0828). Flow cytometric analysis was performed on a Gallios flow cytometer and Kaluza software (Beckman Coulter, Indianapolis IN).

The test system of experiment [2] is mixed CD4+ T cells and CD8+ T cells. The experiment in a line: Expansion of mixed CD4+ and CD8+ T cells at set ratios (5:1, 10:1) with 2-DG. Format: cell-based, human. To be noted: for Cultured T Cell Population Doublings at 5:1 CD4+:CD8+ Cells / Cultured T Cell Population Doublings at 10:1 CD4+:CD8+ Cells: 0.25 mM 2-DG. On the procedure: T cell activation and expansion: T cells (seeding density 1×10^6 vc/mL) were activated with DYNABEADS® Human T-Expander CD3/CD28 (Thermo Fisher Scientific, Cat. No. 11141D) at a ratio of 3 beads per T cell and cultured in serum-free medium, animal origin free medium. T cells were counted on days 5, 7, 10, and 12 on a Vi-CELL XR analyzer (Beckman Coulter, Indianapolis IN) and fed with or without 2-DG (0.25 mM, 0.5 mM, 1 mM, 2 mM, and 4 mM) and 5% human AB serum to a density of 5×10^5 vc/mL on days 3, 5, and 7 and 1×10^6 vc/mL on day 10. For some studies, CD8+ and CD4+ T cells were isolated from PBMCs by negative selection using Untouched Human CD8+ and CD4+ T Cells Kits. Naïve and non-naïve T cells were isolated from enriched T cells by positive selection using CD45RA nanobeads (Miltenyi). CD4+ and CD8+ T cells were mixed at two different CD4+:CD8+ ratios (5:1 and 10:1) to determine the effect of 2-DG on CD8+ T cells. All conditions with and without 2-DG expanded to about 6 to 7 population doublings. Results illustrate that the effect of 2-DG treatment in cell growth was similar in both mixtures. (FIGS. 19 and 20). In FIGS. 38 and 39, CD4+ and CD8+ T cells were mixed at two different CD4:CD8 ratios (5:1 and 10:1) to determine the effect of 2-DG on CD8+ T cells. All conditions with and without 2-DG expanded to about 6 to 7 population doublings. Results illustrate that the effect of 2-DG treatment in cell growth was similar in both mixtures.

In experiment [3] the test system is Naïve T cells. The experiment in a line: Expansion of naïve T cells with 2-DG. To be noted: 4 mM 2-DG. Type of experiment: cell-based, human. On the procedure:
T cell activation and expansion: T cells (seeding density 1×10^6 vc/mL) were activated with DYNABEADS® Human T-Expander CD3/CD28 (Thermo Fisher Scientific, Cat. No. 11141D) at a ratio of 3 beads per T cell and cultured in serum-free medium, animal origin free medium. T cells were counted on days 5, 7, 10, and 12 on a Vi-CELL XR analyzer (Beckman Coulter, Indianapolis IN) and fed with or without 2-DG (0.25 mM, 0.5 mM, 1 mM, 2 mM, and 4 mM) and 5% human AB serum to a density of 5×10^5 vc/mL on days 3, 5, and 7 and 1×10^6 vc/mL on day 10. For some studies, CD8+ and CD4+ T cells were isolated from PBMCs by negative selection using Untouched Human CD8+ and CD4+ T Cells Kits. Naïve and non-naïve T cells were isolated from enriched T cells by positive selection using CD45RA nanobeads (Miltenyi). […]

Experiment [4] relates to Primary human T cells. Nature of the experiment: CD8+/CD4+ phenotype with 2-DG and CD Lipid Concentrate 1 or 2. Type of experiment: cell-based. The protocol:
FIGS. 48 and 49 represent the data from Tables 42 and 43 which depicts the gating strategy for differentiation phenotyping. T cells expanded for 10 days were stained with antibodies against CD3, CD4, and CD8. Flow cytometric analysis was performed in a Beckman-Coulter Gallios analyzer.
Phenotype: Primary human T cells were expanded for 10 days with and without 2-DG and 5% human AB serum. DYNABEADS® were removed from 2×10^6 cells by magnetic separation. Surface staining was performed with antibodies against CD3 (Invitrogen, Cat. No. CD0329), CD4 (Molecular Probes, Cat. No. A15858), CD8 (Invitrogen, Cat. No. MHCD0828). Flow cytometric analysis was performed on a Gallios flow cytometer and Kaluza software (Beckman Coulter, Indianapolis IN).
FIGS. 48 and 49 represent the fold increase in CD8:CD4 ratio compared to day 0.

Values joined by “and” are separate entries in the source; they are usually repeats but may differ in a detail not shown here. Equal entries are not always repeated.

Experimental findings from patent publication US20240076609A1, “COMPOSITIONS AND METHODS FOR CULTURING AND EXPANDING CELLS” (LIFE TECHNOLOGIES CORPORATION, priority 2017, published 2024) are described below.

Turning to `O=CC[C@@H](O)[C@H](O)[C@H](O)CO` [2-DG, 2-Deoxy-D-Glucose], the “% CD4+ (Avg)” value in experiment [1] (Day 10) was found to be 59.69%. For the same compound, in experiment [1] (Day 10), the “% CD8+ (Avg)” value stood at 36.66%. For the same compound, in experiment [1] (Day 10), the “% Ratios (CD8+/CD4+)” value is reported as 2.07. In addition, in experiment [1] (Day 10, replicates), the “% CD4+” value was 25.82% and 25.23%. Also, in experiment [1] (Day 10, replicates), the “% CD8+” value was 52.71% and 53.26%. In experiment [1] (Day 10 vs Day 0), the “Fold Increase compared to Baseline” value was found to be 3.38. Also, the “Cultured T Cell Population Doublings at 5:1 CD4+:CD8+ Cells” value was 2.84 and 1.95 in experiment [2] (day 5); 5.44 and 2.84 in experiment [2] (day 7); 6.17 and 5.44 in experiment [2] (day 10). The “Cultured T Cell Population Doublings at 10:1 CD4+:CD8+ Cells” value in experiment [2] (day 5) was 1.97; in experiment [2] (day 7) it was 2.98; in experiment [2] (day 10), 5.67; in experiment [2] (day 12) it was 6.25. Also, in experiment [2] (CD4+:CD8+ ratios 5:1 and 10:1), the “population doublings” value fell in the range of 6 to 7 population doublings. In addition, the “effect of 2-DG on growth of naïve T cells” value in experiment [3] (12 days) is reported as “did not affect growth of either cell type”. Besides, the “Cultured Naïve T Cell Population Doublings” value was 1.70 in experiment [3] (day 5), 3.92 in experiment [3] (day 7), 5.45 in experiment [3] (day 10) and 6.13 in experiment [3] (day 12). Moreover, the “fold increase in CD8:CD4 ratio compared to day 0” value was determined as 1.6 fold in experiment [4] (2-DG with CLC1) and 1.4 fold in experiment [4] (2-DG with CLC2).
